Patent US20180318200A1, “MOUTHWASH PRODUCTS AND METHODS” (COLGATE-PALMOLIVE COMPANY, priority 2015, published 2018)
Read-outs that look alike come from different tables or passages of the source.

Tests used:
[1] = evaluation with weight adjustment; two 30 minute ex vivo treatments, 7 days in situ in retainer
Procedure: A treatment phase is completed ex vivo. Initial microhardness (MH) measurements are taken on sound, bovine enamel blocks (MHBaseline). The blocks are then etched with 30% phosphoric acid until there was a 40% change in the microhardness reading from Baseline. The microhardness is recorded as etched (Equation 1, MHEtched). Each etched enamel block is then immersed in a 2 ml solution of pre-treated 0.2% wheat hydrolysate (Gluadin W20)+500 ppm F prepared as described above, or a 2 ml solution of 500 ppm F, for 30 minutes. After 30 minutes, the blocks are washed twice with DI water at 500 RPM for 5 minutes, and then dried with a paper towel. This treatment cycle is repeated. The blocks are then secured within the designated location on a retainer for placement in the oral cavity of a subject. Six enamel blocks are placed in each retainer. Pre-punched holes on the retainer allow saliva fluid to contact etched enamel and to provide minerals for remineralization. […] The treated and control enamel blocks are randomized on the left or right side of the retainer. The retainers are then stored in a refrigerator until Day 1 of the study.
Twenty-six subjects are included in this randomized, blinded study. […] After 7 days, the enamel blocks are taken out of the appliance to take the final microhardness measurements (MHRemineralized) Demineralization and remineralization are calculated as follows: […]

[2] = surface microhardness loss, 4 day cycling, four 10 minute treatments per day
Procedure: The selected enamel blocks are then the enamel blocks are pre-treated and subjected to 4 day cycling as described below, using DI water (negative control), 500 ppm F (positive control) and 0.2% wheat hydrolysate (Gluadin W20)+500 ppm F (test material) prepared as described in the previous example. The microhardness of the enamel blocks is measured again as final (MHfinal).
Each enamel block is sanitized in ethanol twice then washed in sterile DI water three times. Then each enamel block is pre-incubated in saliva supernatant at 4° C. overnight to form pellicle on the enamel surface.
Day Two to Five—Dentifrice treatment, demineralization and remineralization: Unstimulated whole saliva is collected from donors, who refrain from eating and oral hygiene in the morning. The saliva is pooled and centrifuged at 8000 rpm for 10 minutes. […] The sediment is washed once using sterile DI water and centrifuged at 8000 rpm for 10 minutes. The water supernatant is removed. The washed sediment is then diluted in the salivary supernatant TSB mixture to an OD (610 nm)=0.5. […]
Surface microhardness loss (SMHL, Demin %) as a percent was calculated as (1−(Microhardnessfinal/Microhardnesssound))*100.

[3] = Microhardness (Knoop) remineralization assay on etched enamel blocks; set-up: species or system bovine; conditions: hydrolysate filtrate with CPC 0.1% and fluoride (NaF) as stated in the label
Procedure: Enamel blocks are prepared as described in Example 1. […] Blocks with a Knoop hardness (KH) of at least 300 are selected. The blocks are etched by immersing in 30% phosphoric acid for 15 seconds. The KH on the left and right sides of the blocks are measured. Subsequently, the right side of the blocks are covered with tape prior to treating the blocks with 20 mg/ml solution of hydrolyzed wheat protein (Gluadin W20 from BASF) or hydrolyzed rice protein (GLUADIN R from BASF), each neutralized as described in example 1, for two terms of 30 minutes. (The tape on the right hand side of the blocks prevents exposure of this side to the protein solution and serves as an internal control). The blocks are washed twice with DI water @ 5 minutes, 500 PRM between the two treatments and after the second treatment. Subsequently, the tape is removed and the blocks are incubated in AS solution (0.2 mM MgCl2, 1 mM CaCl2.H2O, 20 mM HEPES buffer, 4 mM KH2PO4, 16 mM KCl, 4.5 mM NH4Cl, 300 ppm NaF, 0.05 wt. % NaN3, at pH 7 (adjusted with 1M NaOH)) for 7 days. After rinsing the enamel blocks with DI water and air-drying the rinsed blocks, microhardness is measured again. Surface microhardness regain (SMHL, Remin %) as a percent is calculated as […]

[4] = Nanoindentation (nanohardness and Young's modulus) of acid-etched enamel blocks; set-up: species or system bovine; conditions: hydrolyzed wheat protein 0.5 weight %, fluoride 500 ppm; three cycles of 30 minutes treatment + 22 to 24 hours AS
Procedure: Enamel blocks are prepared as described in Example 1. Acid-etching is achieved by placing the enamel blocks in 1% citric acid solution (pH 3.8) for 15 minutes. The nanohardness and Young's modulus at 500 nm depth are measured prior to and after etching. Etched enamel blocks are incubated with a solution of hydrolyzed wheat protein (GLUADIN W20), at a concentration of 0.5 weight %, for 30 minutes (2 ml solution/block), followed by an incubation with AS solution as described in Example 1, for 22 to 24 hours. The hydrolyzed wheat protein and AS incubation steps are repeated two additional times, after which the enamel blocks are rinsed with DI water and air-dried. The nanohardness and Young's modulus of the treated enamel blocks are measured at 500 nm depth to assess the enamel repair effects of the hydrolyzed wheat protein. A solution of 500 ppm fluoride is used as a positive control for the experiment. The results are illustrated in Tables 2 and 3.

F [Fluoride, NaF]
% Remin [1]: 27.6% | Demineralization percentage ([2]; 0.2% sucrose): 8.36% | Demineralization percentage ([2]; 0.4% sucrose): 19.99% | Remineralization % ([3]; listed as Buffer + 250 ppm fluoride): 11.73% | Remineralization % ([3]; listed as Buffer + 500 ppm fluoride): 15.87% | Nanohardness Repair at 500 nm depth (%) [4]: 31.12% | Young's Modulus Repair at 500 nm depth (%) [4]: 48.50%
